# Assay results from patent US20210171598A1, “PEPTIDE HORMONE WITH ONE OR MORE O-GLYCANS” (priority 2017, published 2021).
# Like-named read-outs stand apart in the source and are kept apart here.
# Target: neprilysin (NEP) (Homo sapiens, UniProt P08473)
# Assay: In vitro degradation by neprilysin, MALDI-TOF time course
# Procedure: Many peptide hormones are destined for endocrine circulation where they are rapidly degraded with half-lives reaching only a few minutes^6-8.
# For enzymatic degradation assays using either NEP or DPP-IV (R&D systems, UK), an enzyme titration was carried out to ensure full degradation within one hour of reaction time.
# MALDI-TOF-MS was performed on a Bruker Autoflex instrument (Bruker Daltonik GmbH, Bremen, Germany) by mixing the quenched aliquots with a saturated solution of α-Cyano-4-hydroxycinnamic acid in ACN/H2O/TFA (70:30:0.1) at a ratio 1:1 on a target steel plate and mass-spectra were acquired in linear mode.
# Reactions were performed in 50 mM Tris, 0.05% Brij-35, pH 9 (Neprilysin), or 50 mM Tris, 20 mM NaCl, pH 7.5 (IDE) and incubated at 37° C.
# Sequence of neprilysin (NEP) (P08473 whole entry): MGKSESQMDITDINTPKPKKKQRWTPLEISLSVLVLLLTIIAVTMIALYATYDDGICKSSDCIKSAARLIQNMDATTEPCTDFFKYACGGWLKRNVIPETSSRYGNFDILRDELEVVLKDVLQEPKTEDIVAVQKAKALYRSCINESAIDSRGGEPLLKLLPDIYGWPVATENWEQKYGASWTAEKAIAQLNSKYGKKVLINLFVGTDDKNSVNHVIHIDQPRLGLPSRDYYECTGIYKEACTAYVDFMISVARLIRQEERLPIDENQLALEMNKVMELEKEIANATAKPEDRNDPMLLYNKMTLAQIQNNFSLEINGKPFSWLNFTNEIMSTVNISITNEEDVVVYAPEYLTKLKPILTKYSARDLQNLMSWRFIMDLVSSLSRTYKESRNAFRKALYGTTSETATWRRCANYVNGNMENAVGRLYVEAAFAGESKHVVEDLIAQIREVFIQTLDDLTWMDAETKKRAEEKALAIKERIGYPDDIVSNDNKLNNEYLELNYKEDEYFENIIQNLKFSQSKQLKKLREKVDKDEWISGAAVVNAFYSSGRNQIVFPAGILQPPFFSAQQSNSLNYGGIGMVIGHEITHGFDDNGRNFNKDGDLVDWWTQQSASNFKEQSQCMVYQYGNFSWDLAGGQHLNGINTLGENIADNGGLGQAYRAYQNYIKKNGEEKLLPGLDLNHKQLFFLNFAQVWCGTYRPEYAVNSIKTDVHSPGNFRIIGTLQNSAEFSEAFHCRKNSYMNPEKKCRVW
molecule,measurement,setting,value
CC[C@H](C)[C@@H]1NC(=O)[C@H](CCCNC(=N)N)NC(=O)[C@H](CC(=O)O)NC(=O)[C@H](CCSC)NC(=O)[C@H](CCCNC(=N)N)NC(=O)CNC(=O)CNC(=O)[C@H](Cc2ccccc2)NC(=O)[C@@H](NC(=O)[C@H](CO)NC(=O)[C@H](CO)NC(=O)[C@H](CCCNC(=N)N)NC(=O)[C@H](CCCNC(=N)N)NC(=O)[C@H](CC(C)C)NC(=O)[C@@H](N)CO)CSSC[C@@H](C(=O)N[C@@H](CC(N)=O)C(=O)N[C@@H](CO[C@H]2O[C@H](CO)[C@H](O)[C@H](O)[C@H]2NC(C)=O)C(=O)N[C@@H](Cc2ccccc2)C(=O)N[C@@H](CCCNC(=N)N)C(=O)N[C@@H](Cc2ccc(O)cc2)C(=O)O)NC(=O)CNC(=O)[C@H](CC(C)C)NC(=O)CNC(=O)[C@H](CO[C@H]2O[C@H](CO)[C@H](O)[C@H](O)[C@H]2NC(C)=O)NC(=O)[C@H](CCC(N)=O)NC(=O)[C@H](C)NC(=O)CNC1=O [ANP-Ser19+25/Tn],major degradation products remained detectable after incubation with neprilysin,37° C.,24 h
same,residual full length / partially intact peptide detectable after incubation with NEP,"37° C., MALDI-TOF",30 min
CC[C@H](C)[C@@H]1NC(=O)[C@H](CCCNC(=N)N)NC(=O)[C@H](CC(=O)O)NC(=O)[C@H](CCSC)NC(=O)[C@H](CCCNC(=N)N)NC(=O)CNC(=O)CNC(=O)[C@H](Cc2ccccc2)NC(=O)[C@@H](NC(=O)[C@H](CO)NC(=O)[C@H](CO)NC(=O)[C@H](CCCNC(=N)N)NC(=O)[C@H](CCCNC(=N)N)NC(=O)[C@H](CC(C)C)NC(=O)[C@@H](N)CO)CSSC[C@@H](C(=O)N[C@@H](CC(N)=O)C(=O)N[C@@H](CO)C(=O)N[C@@H](Cc2ccccc2)C(=O)N[C@@H](CCCNC(=N)N)C(=O)N[C@@H](Cc2ccc(O)cc2)C(=O)O)NC(=O)CNC(=O)[C@H](CC(C)C)NC(=O)CNC(=O)[C@H](CO[C@H]2O[C@H](CO)[C@H](O)[C@H](O)[C@H]2NC(C)=O)NC(=O)[C@H](CCC(N)=O)NC(=O)[C@H](C)NC(=O)CNC1=O [ANP-Ser19/Tn],major degradation products remained detectable after incubation with neprilysin,37° C.,24 h
same,residual full length / partially intact peptide detectable after incubation with NEP,"37° C., MALDI-TOF",60 min
CC[C@H](C)[C@@H]1NC(=O)[C@H](CCCNC(=N)N)NC(=O)[C@H](CC(=O)O)NC(=O)[C@H](CCSC)NC(=O)[C@H](CCCNC(=N)N)NC(=O)CNC(=O)CNC(=O)[C@H](Cc2ccccc2)NC(=O)[C@@H](NC(=O)[C@H](CO)NC(=O)[C@H](CO)NC(=O)[C@H](CCCNC(=N)N)NC(=O)[C@H](CCCNC(=N)N)NC(=O)[C@H](CC(C)C)NC(=O)[C@@H](N)CO)CSSC[C@@H](C(=O)N[C@@H](CC(N)=O)C(=O)N[C@@H](CO[C@H]2O[C@H](CO)[C@H](O)[C@H](O)[C@H]2NC(C)=O)C(=O)N[C@@H](Cc2ccccc2)C(=O)N[C@@H](CCCNC(=N)N)C(=O)N[C@@H](Cc2ccc(O)cc2)C(=O)O)NC(=O)CNC(=O)[C@H](CC(C)C)NC(=O)CNC(=O)[C@H](CO)NC(=O)[C@H](CCC(N)=O)NC(=O)[C@H](C)NC(=O)CNC1=O [ANP-Ser25/Tn],residual full length / partially intact peptide detectable after incubation with NEP,"37° C., MALDI-TOF",15 min
"CC(C)C[C@H](NC(=O)CNC(=O)[C@H](CCC(N)=O)NC(=O)[C@H](CC(C)C)NC(=O)[C@H](CC(C)C)NC(=O)[C@H](CCCNC(=N)N)NC(=O)[C@H](CCC(N)=O)NC(=O)[C@H](CC(C)C)NC(=O)[C@H](CCCNC(=N)N)NC(=O)[C@H](C)NC(=O)CNC(=O)[C@H](CCC(=O)O)NC(=O)[C@H](CCCNC(=N)N)NC(=O)[C@H](CC(C)C)NC(=O)[C@H](CCCNC(=N)N)NC(=O)[C@H](CO)NC(=O)[C@H](CC(C)C)NC(=O)[C@H](CCC(=O)O)NC(=O)[C@H](CO)NC(=O)[C@@H](NC(=O)[C@H](Cc1ccccc1)NC(=O)[C@@H](NC(=O)CNC(=O)[C@H](CC(=O)O)NC(=O)[C@H](CO)NC(=O)[C@@H](N)Cc1c[nH]cn1)[C@@H](C)O)[C@@H](C)O)C(=O)N[C@H](C(N)=O)C(C)C [Secretin, reference compound]",time to complete degradation by NEP,"37° C., MALDI-TOF",≤ 60 min
CC(=O)N[C@H]1[C@@H](O[C@H](C)[C@H](NC(=O)[C@H](Cc2ccccc2)NC(=O)[C@@H](NC(=O)CNC(=O)[C@H](CC(=O)O)NC(=O)[C@H](CO)NC(=O)[C@@H](N)Cc2c[nH]cn2)[C@@H](C)O)C(=O)N[C@@H](CO)C(=O)N[C@@H](CCC(=O)O)C(=O)N[C@@H](CC(C)C)C(=O)N[C@@H](CO)C(=O)N[C@@H](CCCNC(=N)N)C(=O)N[C@@H](CC(C)C)C(=O)N[C@@H](CCCNC(=N)N)C(=O)N[C@@H](CCC(=O)O)C(=O)NCC(=O)N[C@@H](C)C(=O)N[C@@H](CCCNC(=N)N)C(=O)N[C@@H](CC(C)C)C(=O)N[C@@H](CCC(N)=O)C(=O)N[C@@H](CCCNC(=N)N)C(=O)N[C@@H](CC(C)C)C(=O)N[C@@H](CC(C)C)C(=O)N[C@@H](CCC(N)=O)C(=O)NCC(=O)N[C@@H](CC(C)C)C(=O)N[C@H](C(N)=O)C(C)C)O[C@H](CO)[C@H](O)[C@@H]1O [Secretin-Thr7-Tn],remained (completely) intact after incubation with NEP,"37° C., MALDI-TOF",60 min
"CC[C@H](C)[C@H](NC(=O)[C@H](CO)NC(=O)[C@H](CC(N)=O)NC(=O)[C@H](CC(C)C)NC(=O)[C@H](Cc1ccc(O)cc1)NC(=O)[C@H](CCCCN)NC(=O)[C@H](CCCCN)NC(=O)[C@@H](NC(=O)[C@H](C)NC(=O)[C@H](CCSC)NC(=O)[C@H](CCC(N)=O)NC(=O)[C@H](CCCCN)NC(=O)[C@H](CCCN=C(N)N)NC(=O)[C@H](CC(C)C)NC(=O)[C@H](CCCN=C(N)N)NC(=O)[C@@H](NC(=O)[C@H](Cc1ccc(O)cc1)NC(=O)[C@H](CC(N)=O)NC(=O)[C@H](CC(=O)O)NC(=O)[C@@H](NC(=O)[C@H](Cc1ccccc1)NC(=O)[C@@H](NC(=O)[C@H](C)NC(=O)[C@H](CC(=O)O)NC(=O)[C@H](CO)NC(=O)[C@@H](N)Cc1c[nH]cn1)C(C)C)[C@@H](C)O)[C@@H](C)O)C(C)C)C(=O)N[C@@H](CC(C)C)C(=O)N[C@@H](CC(N)=O)C(N)=O [VIP, Vasoactive intestinal peptide, reference compound]",time to complete degradation by NEP,"37° C., MALDI-TOF",15 min
CC[C@H](C)[C@H](NC(=O)[C@H](CO)NC(=O)[C@H](CC(N)=O)NC(=O)[C@H](CC(C)C)NC(=O)[C@H](Cc1ccc(O)cc1)NC(=O)[C@H](CCCCN)NC(=O)[C@H](CCCCN)NC(=O)[C@@H](NC(=O)[C@H](C)NC(=O)[C@H](CCSC)NC(=O)[C@H](CCC(N)=O)NC(=O)[C@H](CCCCN)NC(=O)[C@H](CCCNC(=N)N)NC(=O)[C@H](CC(C)C)NC(=O)[C@H](CCCNC(=N)N)NC(=O)[C@@H](NC(=O)[C@H](Cc1ccc(O)cc1)NC(=O)[C@H](CC(N)=O)NC(=O)[C@H](CC(=O)O)NC(=O)[C@@H](NC(=O)[C@H](Cc1ccccc1)NC(=O)[C@@H](NC(=O)[C@H](C)NC(=O)[C@H](CC(=O)O)NC(=O)[C@H](CO)NC(=O)[C@@H](N)Cc1c[nH]cn1)C(C)C)[C@@H](C)O[C@H]1O[C@H](CO)[C@H](O)[C@H](O[C@@H]2O[C@H](CO)[C@H](O)[C@H](O)[C@H]2O)[C@H]1NC(C)=O)[C@@H](C)O)C(C)C)C(=O)N[C@@H](CC(C)C)C(=O)N[C@@H](CC(N)=O)C(N)=O [VIP-Thr7/T],residual full length / partially intact peptide detectable after incubation with NEP,"37° C., MALDI-TOF",30 min
CC[C@H](C)[C@H](NC(=O)[C@H](CO)NC(=O)[C@H](CC(N)=O)NC(=O)[C@H](CC(C)C)NC(=O)[C@H](Cc1ccc(O)cc1)NC(=O)[C@H](CCCCN)NC(=O)[C@H](CCCCN)NC(=O)[C@@H](NC(=O)[C@H](C)NC(=O)[C@H](CCSC)NC(=O)[C@H](CCC(N)=O)NC(=O)[C@H](CCCCN)NC(=O)[C@H](CCCNC(=N)N)NC(=O)[C@H](CC(C)C)NC(=O)[C@H](CCCNC(=N)N)NC(=O)[C@@H](NC(=O)[C@H](Cc1ccc(O)cc1)NC(=O)[C@H](CC(N)=O)NC(=O)[C@H](CC(=O)O)NC(=O)[C@@H](NC(=O)[C@H](Cc1ccccc1)NC(=O)[C@@H](NC(=O)[C@H](C)NC(=O)[C@H](CC(=O)O)NC(=O)[C@H](CO)NC(=O)[C@@H](N)Cc1c[nH]cn1)C(C)C)[C@@H](C)O[C@H]1O[C@H](CO)[C@H](O)[C@H](O)[C@H]1NC(C)=O)[C@@H](C)O)C(C)C)C(=O)N[C@@H](CC(C)C)C(=O)N[C@@H](CC(N)=O)C(N)=O [VIP-Thr7/Tn],residual full length / partially intact peptide detectable after incubation with NEP,"37° C., MALDI-TOF",15 min
Galanin-Ser55/ST: sialylated Galanin variant,remained intact / resistant to NEP degradation even after,,24 h
same,state after overnight incubation with neprilysin,,remained partially intact
Ser23-T: Galanin Ser23 T extended glycoform,time to complete degradation by NEP,,120 min
Ser23-Tn: Galanin Ser23-Tn glycoform,time to complete degradation by NEP,,120 min
